≈ marks a conversion by molar mass, not a printed value. Entries after “also recorded” stand apart in the source; their conditions may differ. Ends that are not written are not given here.
Columns and labels:
[1] = test system: Streptococcus pyogen ATCC 19615; assay: MIC, broth dilution, S. pyogenes; format: cell-based, Streptococcus pyogenes; conditions: MH broth, overnight at 37 °C, peptide 0 to 16 μM, OD600, S. pyogenes ATCC 19615
Experimental: (§1) Typically, an overnight bacterial culture was grown to the mid-log phase on a shaker at 183 rpm, at 37 °C, and then diluted in 2X Mueller Hinton (MH) broth (Millipore-Sigma^TM, Saint Louis, MO, USA) to achieve a final OD of 0.002. In a 96-well plate, 100 μL of the diluted bacterial culture along with 100 μL of peptide, concentrations ranging from 0 μM to 16 μM, was added and incubated overnight at 37 °C. Peptide concentrations were estimated by UV absorbance at a wavelength of 274 nm using a molar extinction coefficient (ε) of 1420 M^−1 cm^−1. Bacterial growth inhibition was determined by absorbance of 96 well plates at OD600 nm using a Cytation spectrophotometer (Agilent, Santa Clara, CA, USA).

liver cell line Hep G2 = assay: MTS cell survival assay, Hep G2; format: cell-based, human; conditions: OD490, overnight at 37 °C/5% CO2, Figure 1
Experimental: (§2) Assays were conducted in complete media for cells Dulbecco’s Modified Eagle Medium (DMEM; Gibco; Waltham, MA USA, catalog number: 11995065) supplemented with 10% fetal bovine serum (FBS; Hyclone; Logan, UT, USA, catalog number: SV30160.03HI-1). […] All dose-response peptide dilutions were prepared in a U-bottom 96-well plate. 0.02 × 10^6 cells/50 µL of complete media were seeded overnight per well in a 96-well plate, and 105 µL of serum-free (sf) DMEM were added. Cells and peptides were incubated at 37 °C/5% CO2 overnight. Cell viability was checked using MTS assay and read after 30–45 min, and absorbance at OD490 was read using Tecan Infinite 200 Pro plate reader (Tecan, Mannedrof, Switzerland, CellTiter96®AQueous One Solution Cell Proliferation Assay (MTS); catalog number: G3580).

[2] = test system: Acinetobacter baumannii ATCC BAA-1798; assay: MIC, A. baumannii; format: cell-based; conditions: A. baumannii ATCC BAA-1798; broth dilution, overnight at 37 °C, peptide 0 to 16 μM
Experimental: as §1

LptAm of E. coli = biological target: T1, LptAm of E. coli (Escherichia coli, UniProt P0ADV1); assay: LptAm binding by ITC
T1 construct: Recombinant LptAm (residues 28–159) of E. coli; His-tag; made in house; host or cells: E. coli BL21

[3] = test system: human kidney cell line HEK 293T; assay: MTS cell survival assay, HEK 293T; format: cell-based; conditions: OD490, overnight at 37 °C/5% CO2, Figure 1
Experimental: as §2

[4] = test system: Escherichia coli ATCC 25922; assay: MIC, broth dilution, E. coli; format: cell-based; conditions: MH broth, overnight at 37 °C, peptide 0 to 16 μM, OD600, E. coli ATCC 25922
Experimental: as §1

[5] = test system: Enterococcus faecalis ATCC 29212; assay: MIC, broth dilution, E. faecalis; format: cell-based; conditions: MH broth, overnight at 37 °C, peptide 0 to 16 μM, OD600, E. faecalis ATCC 29212
Experimental: as §1

Gram-negative bacteria [6] = conditions: cited from earlier work
Text: Currently, viable antibiotics available to mitigate infections caused by drug-resistant Gram-negative bacteria are highly limited. Thanatin, a 21-residue-long insect-derived antimicrobial peptide (AMP), is a promising lead molecule for the potential development of novel antibiotics. […] As a mode of action, cationic thanatin efficiently permeabilizes the LPS-outer membrane and binds to the periplasmic protein LptAm to inhibit outer membrane biogenesis. […] In this work, we have investigated shorter variants of thanatin in terms of their antibacterial activity, atomic resol ... || Previous studies have shown that residues at the N-terminus of thanatin ([…]) can be dispensable for antimicrobial activity. By contrast, deletion of residues at the C-terminus of thanatin drastically reduces activity against Gram-negative bacteria. […] However, antibacterial activity was ...

LptA and LptC complex = conditions: binding of LptA; cited from earlier work
Text: (§3) In this work, we have investigated shorter variants of thanatin in terms of their antibacterial activity, atomic resol ...

[7] = test system: periplasmic part of the β-taco domain of LptD; conditions: cited from earlier work
Text: as §3

[8] = test system: outer membrane of Gram-negative bacteria; conditions: binding with negatively charged LPS; cited from earlier work
Text: (§4) Cationic AMPs are known ...

Gram-negative bacteria [9] = conditions: cited from earlier work; remark: listed apart in the source
Text: as §4

LptAm = conditions: truncated functional variant of LptA; cited from earlier work
Text: The 21-residue-long thanatin was isolated from the hemolymph of the bacteria-treated insect Podisus maculiventris. A single disulfide bond between residues Cys11 and […] stabilizes the β-hairpin structure of thanatin with a flexible N-terminus region. […] Cationic AMPs are known ...

[10] = cited from earlier work
Text: Host defense AMPs contain a high potential to combat drug or multidrug-resistant bacterial pathogens. AMPs are evolutionary conserved molecules found in all kingdoms of life that are effective in fending off infections as a part of innate immunity. The broad-spectrum activity of AMPs provides vital lead molecules for the next generation of antibiotics. In particular, the ability of AMPs to kill Gram-negative bacteria can be exploited for the designing of new antibiotics against drug-resistant strains.

Compound: CC[C@H](C)[C@H](NC(=O)[C@@H](NC(=O)[C@@H]1CCCN1C(=O)[C@@H](N)C(C)C)[C@@H](C)CC)C(=O)N[C@@H](Cc1ccc(O)cc1)C(=O)N[C@H]1CSSC[C@@H](C(=O)N[C@@H](CCC(N)=O)C(=O)N[C@@H](CCCNC(=N)N)C(=O)N[C@@H](Cc2ccccc2)C(N)=O)NC(=O)[C@H](CCCCN)NC(=O)[C@@H](CCCCN)NC(=O)[C@H]([C@@H](C)O)NC(=O)[C@H](CCCNC(=N)N)NC(=O)[C@H](CCCNC(=N)N)NC(=O)[C@H](CC(N)=O)NC1=O [VF16]
- MIC (SP) [1]: 1 µM (≈ 2.02 µg/mL)
- toxicity / cell survival, Hep G2, in words (liver cell line Hep G2): did not show any detectable toxicity; also recorded: essentially non-toxic as both the cell lines demonstrate a high percentage of survival
- MIC (AB) [2]: >16 µM
- Kd (LptAm of E. coli): 0.25 µM
- toxicity / cell survival, HEK 293T, in words [3]: did not show any detectable toxicity; also recorded: essentially non-toxic as both the cell lines demonstrate a high percentage of survival
- MIC (EC) [4]: 0.5 µM (≈ 1.01 µg/mL)
- MIC (EF) [5]: >16 µM

Compound: GSKKPVPIIYCNRRTGKCQRM (disulfide) [thanatin]
- activity against Gram-negative pathogens, in words (abstract) (Gram-negative bacteria [6]; Enterobacter group, e.g., E. coli and K. pneumoniae, background statement, no reference given): extremely potent
- activity against Gram-negative bacteria, in words (Gram-negative bacteria [6]; including drug-resistant strains of E. coli and K. pneumoniae): potent activity
- inhibition of LPS transport, in words (LptA and LptC complex): disrupting LptA and LptC complex
- LptD binding, in words [7]: binds to the periplasmic part of the β-taco domain of LptD
- outer membrane permeabilization, in words [8]: efficient permeabilization of the outer membrane of Gram-negative bacteria
- effect in animal models of sepsis and infections, in words (Gram-negative bacteria [9]): lowering of Gram-negative bacterial loads and also neutralization of toxicity of LPS
- LptAm binding, in words (LptAm): high-affinity binding with LptAm

Compound: polymyxin B
- nephrotoxicity, in words [10]: nephrotoxicity

Compound: thanatin analog with M21F substitution: thanatin analog with M21F substitution (GSKKPVPIIYCNRRTGKCQRF; ends and bridges not checked; cysteine pairing not given here; UniProt P55788 1-21, looked up, variant M21F)
- antibacterial activity of M21F analog, in words (Gram-negative bacteria [6]; compared with thanatin): better antibacterial activity

Source: PMC10888688 (International Journal of Molecular Sciences, 2024)
